Measured values as given in paper PMC13022382, “A high-affinity split-HaloTag for live-cell protein labeling” (Nature Communications, 2026).
Residues, ends and D or L forms follow the SMILES beside them. *: point of attachment. Biotin = O=C1N[C@H]2[C@H](CS[C@H]2CCCCC(=O)*)N1

Experiments:
cpHaloΔ3-SiR = assay: Bio-layer interferometry binding kinetics, biotin-Hpep with cpHaloΔ3-SiR; details: BLI, 25 °C, 1:1 global fit; for Kd: biotin-Hpep 50 nM immobilised, cpHalo∆3-SiR 300–2 nM; for koff / kon: biotin-Hpep, cpHalo∆3-SiR
Protocol: (§1) After incubation, Hpep1 was removed by IMAC purification on a gravity flow column and buffer was exchanged to activity buffer using Amicon Ultra-15 Centrifugal Filter Unit. The protein labeling was verified by SDS-PAGE, comparing Coomassie blue staining and in-gel fluorescence (Supplementary Fig. 19). Protein labeling and Hpep1 removal were further verified by HRMS as previously explained.
(§2) Bio-layer interferometry (BLI) analysis was performed in a 96-well plate using an Octet® R4 system (Sartorius) with an acquisition rate for standard kinetics of 5.0 Hz at 25 °C. […] The raw data was analyzed using Octet® Analysis Studio (Sartorius). For data correction, response curves were baseline-aligned by subtracting the average signal of the baseline step and Savitzky–Golay filtering was used to remove high-frequency noise from the data.

cpHaloΔ3-TMR = assay: Bio-layer interferometry binding kinetics, biotin-Hpep with cpHaloΔ3-TMR; details: BLI, 25 °C, 1:1 global fit; for Kd: biotin-Hpep 50 nM immobilised, cpHalo∆3-TMR 300–2 nM; for koff / kon: biotin-Hpep, cpHalo∆3-TMR
Protocol: as §1, §2

cpHaloΔ = tested on: cpHaloΔ; set-up: method as in 2 sources, one per row (each row's own in cited_ref): ref 4 (Huppertz et al., Science 2024) ||| ref PhD thesis of Jonas Wilhelm; details: CA-TMR labeling kinetics, TEVp-cleaved cpHalo∆; 500 nM cpHaloΔ protein, 100 nM CA-TMR (EC50 >1 μM); ref 4 (Huppertz et al., Science 2024); read-out: EC50 for the parental cpHalo∆; cited from earlier work
Chain of cpHaloΔ (P0A3G2 4-141 L47V/S58T/D78G/Y87F/L88M/C128F): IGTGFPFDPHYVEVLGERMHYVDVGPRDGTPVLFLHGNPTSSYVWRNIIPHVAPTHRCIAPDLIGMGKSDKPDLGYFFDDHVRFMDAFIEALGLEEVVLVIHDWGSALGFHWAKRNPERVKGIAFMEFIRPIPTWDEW
Chain of cpHaloΔ (P0A3G2 156-290 E160K/A167V/A172T/K175M/C176G/K195N/A224E/N227D/E257K/T264A/H272N/Y273L): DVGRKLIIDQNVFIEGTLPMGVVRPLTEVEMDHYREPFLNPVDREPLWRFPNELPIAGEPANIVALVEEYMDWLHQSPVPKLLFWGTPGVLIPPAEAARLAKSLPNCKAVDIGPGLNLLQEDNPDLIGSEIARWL

## CSCC[C@H](NC(=O)[C@H](CCC(=O)O)NC(=O)[C@H](CCCNC(=N)N)NC(=O)[C@H](Cc1c[nH]c2ccccc12)NC(=O)[C@H](CC(=O)O)NC(=O)[C@H](CCCNC(=N)N)NC(=O)[C@H](CCCCN)NC(=O)[C@H](CO)NC(=O)CCCC[C@@H]1SC[C@@H]2NC(=O)N[C@@H]21)C(=O)N[C@@H](Cc1ccccc1)C(=O)N[C@@H](CCCNC(=N)N)C(=O)N[C@@H](CC(C)C)C(=O)N[C@@H](Cc1ccccc1)C(=O)N[C@@H](CCCNC(=N)N)C(=O)N[C@H](C(=O)O)[C@@H](C)O [biotin-Hpep11] (Biotin-SKRDWREMFRLFRT-OH)
cpHaloΔ3-SiR
  Kd: 0.00427 µM
  koff: 0.000214 s⁻¹
  kon: 50000 M⁻¹ s⁻¹
cpHaloΔ3-TMR
  Kd: 0.0106 µM
  koff: 0.000687 s⁻¹
  kon: 64900 M⁻¹ s⁻¹

## WREEVRKAFKLFRQ [Hpep5, previously reported split-HaloTag peptide, […]]
cpHaloΔ
  EC50: 10.7 µM

## AREMFQAFRT [Hpep2, previously reported split-HaloTag peptide, […]]
cpHaloΔ
  EC50: 1120 µM

## ARETFQAFRT [Hpep1, previously reported split-HaloTag peptide, […]]
cpHaloΔ
  EC50: 2980 µM

## WRETFQLFRT [Hpep6, previously reported split-HaloTag peptide, […]]
cpHaloΔ
  EC50: 2.39 µM

## CSCC[C@H](NC(=O)[C@H](CCC(=O)O)NC(=O)[C@H](CCCNC(=N)N)NC(=O)[C@H](Cc1c[nH]c2ccccc12)NC(=O)[C@H](CO)NC(=O)[C@H](Cc1c[nH]c2ccccc12)NC(=O)CNC(=O)[C@H](CCCNC(=N)N)NC(=O)CCCC[C@@H]1SC[C@@H]2NC(=O)N[C@@H]21)C(=O)N[C@@H](Cc1ccccc1)C(=O)N[C@@H](CCCNC(=N)N)C(=O)N[C@@H](CC(C)C)C(=O)N[C@@H](Cc1ccccc1)C(=O)N[C@@H](CCCNC(=N)N)C(=O)N[C@H](C(=O)O)[C@@H](C)O [biotin-Hpep9] (Biotin-RGWSWREMFRLFRT-OH)
cpHaloΔ3-SiR
  Kd: 0.0188 µM
  koff: 0.00149 s⁻¹
  kon: 78900 M⁻¹ s⁻¹
cpHaloΔ3-TMR
  Kd: 0.00486 µM
  koff: 0.00104 s⁻¹
  kon: 214000 M⁻¹ s⁻¹

## SKRDAREMFQAFRT [Hpep3, previously reported split-HaloTag peptide, […]]
cpHaloΔ
  EC50: 149 µM

## WKEEVIKAFKLFRD [Hpep4, previously reported split-HaloTag peptide, […]]
cpHaloΔ
  EC50: 21 µM
